± gives the expanded uncertainty stated by the source.
Test: activity coefficient (dimensionless); of the first substance listed, at infinite dilution; xn = mol fraction of the nth substance listed
Details: Liquid, Chromatography, x1 = 0

CCCCCCC [heptane] + CCCCCCn1cc[n+](C)c1.N#C[B-](C#N)(C#N)C#N
activity coefficient (318.15 K): 16.5 ± 0.8 | activity coefficient (328.15 K): 15.4 ± 0.7 | activity coefficient (338.15 K): 14.5 ± 0.7 | activity coefficient (348.15 K): 13.7 ± 0.6 | activity coefficient (358.15 K): 13 ± 0.6 | activity coefficient (368.15 K): 12.4 ± 0.6

CCC(=O)CC [pentan-3-one] + CCCCCCn1cc[n+](C)c1.N#C[B-](C#N)(C#N)C#N
activity coefficient (318.15 K): 0.478 ± 0.033 | activity coefficient (328.15 K): 0.498 ± 0.033 | activity coefficient (338.15 K): 0.518 ± 0.032 | activity coefficient (348.15 K): 0.536 ± 0.032 | activity coefficient (358.15 K): 0.551 ± 0.032 | activity coefficient (368.15 K): 0.569 ± 0.031

CCCCO [butan-1-ol] + CCCCCCn1cc[n+](C)c1.N#C[B-](C#N)(C#N)C#N
activity coefficient (318.15 K): 1.43 ± 0.05 | activity coefficient (328.15 K): 1.32 ± 0.05 | activity coefficient (338.15 K): 1.22 ± 0.04 | activity coefficient (348.15 K): 1.14 ± 0.03 | activity coefficient (358.15 K): 1.07 ± 0.03 | activity coefficient (368.15 K): 1.01 ± 0.03

CCC[N+](=O)[O-] [1-nitropropane] + CCCCCCn1cc[n+](C)c1.N#C[B-](C#N)(C#N)C#N
activity coefficient (328.15 K): 0.497 ± 0.033 | activity coefficient (338.15 K): 0.503 ± 0.032 | activity coefficient (348.15 K): 0.508 ± 0.032 | activity coefficient (358.15 K): 0.511 ± 0.032 | activity coefficient (368.15 K): 0.518 ± 0.032

C1CCCCCC1 [cycloheptane] + CCCCCCn1cc[n+](C)c1.N#C[B-](C#N)(C#N)C#N
activity coefficient (318.15 K): 7.96 ± 0.37 | activity coefficient (328.15 K): 7.46 ± 0.34 | activity coefficient (338.15 K): 7.07 ± 0.32 | activity coefficient (348.15 K): 6.76 ± 0.31 | activity coefficient (358.15 K): 6.45 ± 0.3 | activity coefficient (368.15 K): 6.21 ± 0.28

CCCCC [pentane] + CCCCCCn1cc[n+](C)c1.N#C[B-](C#N)(C#N)C#N
activity coefficient (318.15 K): 8.63 ± 0.4 | activity coefficient (328.15 K): 8.22 ± 0.38 | activity coefficient (338.15 K): 7.85 ± 0.36 | activity coefficient (348.15 K): 7.61 ± 0.35 | activity coefficient (358.15 K): 7.33 ± 0.34 | activity coefficient (368.15 K): 7.13 ± 0.33

C=CCCCCC [1-heptene] + CCCCCCn1cc[n+](C)c1.N#C[B-](C#N)(C#N)C#N
activity coefficient (318.15 K): 8.39 ± 0.38 | activity coefficient (328.15 K): 8.06 ± 0.37 | activity coefficient (338.15 K): 7.79 ± 0.36 | activity coefficient (348.15 K): 7.59 ± 0.35 | activity coefficient (358.15 K): 7.37 ± 0.34 | activity coefficient (368.15 K): 7.24 ± 0.33

CCC(C)O (stereo not drawn) [butan-2-ol] + CCCCCCn1cc[n+](C)c1.N#C[B-](C#N)(C#N)C#N
activity coefficient (318.15 K): 1.27 ± 0.04 | activity coefficient (328.15 K): 1.17 ± 0.04 | activity coefficient (338.15 K): 1.1 ± 0.1 | activity coefficient (348.15 K): 1.03 ± 0.03 | activity coefficient (358.15 K): 0.977 ± 0.025 | activity coefficient (368.15 K): 0.938 ± 0.026

CCCO [propan-1-ol] + CCCCCCn1cc[n+](C)c1.N#C[B-](C#N)(C#N)C#N
activity coefficient (318.15 K): 1.19 ± 0.04 | activity coefficient (328.15 K): 1.1 ± 0.03 | activity coefficient (338.15 K): 1.02 ± 0.03 | activity coefficient (348.15 K): 0.965 ± 0.026 | activity coefficient (358.15 K): 0.913 ± 0.026 | activity coefficient (368.15 K): 0.864 ± 0.027

COC(C)=O [methyl ethanoate] + CCCCCCn1cc[n+](C)c1.N#C[B-](C#N)(C#N)C#N
activity coefficient (318.15 K): 0.508 ± 0.032 | activity coefficient (328.15 K): 0.521 ± 0.032 | activity coefficient (338.15 K): 0.538 ± 0.032 | activity coefficient (348.15 K): 0.55 ± 0.032 | activity coefficient (358.15 K): 0.566 ± 0.032 | activity coefficient (368.15 K): 0.586 ± 0.031

C1COCCO1 [1,4-dioxane] + CCCCCCn1cc[n+](C)c1.N#C[B-](C#N)(C#N)C#N
activity coefficient (318.15 K): 0.362 ± 0.035 | activity coefficient (328.15 K): 0.381 ± 0.034 | activity coefficient (338.15 K): 0.401 ± 0.034 | activity coefficient (348.15 K): 0.419 ± 0.034 | activity coefficient (358.15 K): 0.435 ± 0.033 | activity coefficient (368.15 K): 0.454 ± 0.033

CC(C)OC(C)C [diisopropyl ether] + CCCCCCn1cc[n+](C)c1.N#C[B-](C#N)(C#N)C#N
activity coefficient (318.15 K): 3.68 ± 0.17 | activity coefficient (328.15 K): 3.71 ± 0.17 | activity coefficient (338.15 K): 3.75 ± 0.17 | activity coefficient (348.15 K): 3.8 ± 0.17 | activity coefficient (358.15 K): 3.82 ± 0.17 | activity coefficient (368.15 K): 3.87 ± 0.18

C1CCCCCCC1 [cyclooctane] + CCCCCCn1cc[n+](C)c1.N#C[B-](C#N)(C#N)C#N
activity coefficient (318.15 K): 9.94 ± 0.46 | activity coefficient (328.15 K): 9.29 ± 0.43 | activity coefficient (338.15 K): 8.75 ± 0.4 | activity coefficient (348.15 K): 8.33 ± 0.38 | activity coefficient (358.15 K): 7.9 ± 0.36 | activity coefficient (368.15 K): 7.57 ± 0.35

COC(C)(C)C [2-methoxy-2-methylpropane] + CCCCCCn1cc[n+](C)c1.N#C[B-](C#N)(C#N)C#N
activity coefficient (318.15 K): 1.62 ± 0.07 | activity coefficient (328.15 K): 1.66 ± 0.07 | activity coefficient (338.15 K): 1.71 ± 0.07 | activity coefficient (348.15 K): 1.76 ± 0.07 | activity coefficient (358.15 K): 1.81 ± 0.08 | activity coefficient (368.15 K): 1.87 ± 0.08

C=Cc1ccccc1 [styrene] + CCCCCCn1cc[n+](C)c1.N#C[B-](C#N)(C#N)C#N
activity coefficient (328.15 K): 0.83 ± 0.03 | activity coefficient (338.15 K): 0.856 ± 0.027 | activity coefficient (348.15 K): 0.878 ± 0.027 | activity coefficient (358.15 K): 0.902 ± 0.026 | activity coefficient (368.15 K): 0.926 ± 0.026

CC(C)CC(C)(C)C [2,2,4-trimethylpentane] + CCCCCCn1cc[n+](C)c1.N#C[B-](C#N)(C#N)C#N
activity coefficient (318.15 K): 18.8 ± 0.9 | activity coefficient (328.15 K): 17.6 ± 0.8 | activity coefficient (338.15 K): 16.5 ± 0.8 | activity coefficient (348.15 K): 15.7 ± 0.7 | activity coefficient (358.15 K): 15 ± 0.7 | activity coefficient (368.15 K): 14.3 ± 0.7

CCCC=O [butanal] + CCCCCCn1cc[n+](C)c1.N#C[B-](C#N)(C#N)C#N
activity coefficient (318.15 K): 0.512 ± 0.032 | activity coefficient (328.15 K): 0.523 ± 0.032 | activity coefficient (338.15 K): 0.539 ± 0.032 | activity coefficient (348.15 K): 0.554 ± 0.032 | activity coefficient (358.15 K): 0.564 ± 0.032 | activity coefficient (368.15 K): 0.579 ± 0.031

CO [methanol] + CCCCCCn1cc[n+](C)c1.N#C[B-](C#N)(C#N)C#N
activity coefficient (318.15 K): 0.837 ± 0.027 | activity coefficient (328.15 K): 0.786 ± 0.028 | activity coefficient (338.15 K): 0.745 ± 0.029 | activity coefficient (348.15 K): 0.704 ± 0.029 | activity coefficient (358.15 K): 0.668 ± 0.03 | activity coefficient (368.15 K): 0.633 ± 0.031

CCCCCCCCC [nonane] + CCCCCCn1cc[n+](C)c1.N#C[B-](C#N)(C#N)C#N
activity coefficient (318.15 K): 31.4 ± 1.5 | activity coefficient (328.15 K): 28.8 ± 1.3 | activity coefficient (338.15 K): 26.6 ± 1.2 | activity coefficient (348.15 K): 24.9 ± 1.2 | activity coefficient (358.15 K): 23.2 ± 1.1 | activity coefficient (368.15 K): 21.9 ± 1

CCC(C)(C)C [2,2-dimethylbutane] + CCCCCCn1cc[n+](C)c1.N#C[B-](C#N)(C#N)C#N
activity coefficient (318.15 K): 10.5 ± 0.5 | activity coefficient (328.15 K): 9.96 ± 0.46 | activity coefficient (338.15 K): 9.52 ± 0.44 | activity coefficient (348.15 K): 9.24 ± 0.42 | activity coefficient (358.15 K): 8.92 ± 0.41 | activity coefficient (368.15 K): 8.69 ± 0.4

CCC(C)(C)OC [2-methoxy-2-methylbutane] + CCCCCCn1cc[n+](C)c1.N#C[B-](C#N)(C#N)C#N
activity coefficient (318.15 K): 2.19 ± 0.1 | activity coefficient (328.15 K): 2.24 ± 0.1 | activity coefficient (338.15 K): 2.27 ± 0.1 | activity coefficient (348.15 K): 2.33 ± 0.11 | activity coefficient (358.15 K): 2.36 ± 0.11 | activity coefficient (368.15 K): 2.42 ± 0.11

CCc1ccccc1 [ethylbenzene] + CCCCCCn1cc[n+](C)c1.N#C[B-](C#N)(C#N)C#N
activity coefficient (318.15 K): 1.39 ± 0.05 | activity coefficient (328.15 K): 1.41 ± 0.05 | activity coefficient (338.15 K): 1.43 ± 0.05 | activity coefficient (348.15 K): 1.45 ± 0.05 | activity coefficient (358.15 K): 1.47 ± 0.06 | activity coefficient (368.15 K): 1.49 ± 0.06

CCOC(C)(C)C [2-ethoxy-2-methylpropane] + CCCCCCn1cc[n+](C)c1.N#C[B-](C#N)(C#N)C#N
activity coefficient (318.15 K): 3.51 ± 0.16 | activity coefficient (328.15 K): 3.53 ± 0.16 | activity coefficient (338.15 K): 3.53 ± 0.16 | activity coefficient (348.15 K): 3.58 ± 0.16 | activity coefficient (358.15 K): 3.61 ± 0.16 | activity coefficient (368.15 K): 3.66 ± 0.17

CC(C)O [propan-2-ol] + CCCCCCn1cc[n+](C)c1.N#C[B-](C#N)(C#N)C#N
activity coefficient (318.15 K): 1.2 ± 0.04 | activity coefficient (328.15 K): 1.11 ± 0.03 | activity coefficient (338.15 K): 1.03 ± 0.03 | activity coefficient (348.15 K): 0.961 ± 0.026 | activity coefficient (358.15 K): 0.902 ± 0.026 | activity coefficient (368.15 K): 0.852 ± 0.027

CCO [ethanol] + CCCCCCn1cc[n+](C)c1.N#C[B-](C#N)(C#N)C#N
activity coefficient (318.15 K): 1.05 ± 0.03 | activity coefficient (328.15 K): 0.978 ± 0.025 | activity coefficient (338.15 K): 0.912 ± 0.026 | activity coefficient (348.15 K): 0.855 ± 0.027 | activity coefficient (358.15 K): 0.807 ± 0.028 | activity coefficient (368.15 K): 0.761 ± 0.029

— the NIST ThermoML archive (doi:10.1016/j.jct.2011.11.025)
